# Values quoted from earlier work in patent US20230240985A1, “STABLE PHARMACEUTICAL COMPOSITION OF TOPIRAMATE” (ALKEM LABORATORIES LIMITED, priority 2022, published 2023).
structure (smiles),measurement,setting,value
"CC1(C)O[C@@H]2[C@@H](CO[C@@]3(COS(N)(=O)=O)OC(C)(C)O[C@@H]23)O1 [Topiramate, 2,3:4,5-Di-O-isopropylidine-β-D-fructopyranose sulfamate]",solubility in organic solvents,"acetone, chloroform, dimethylsulfoxide, and ethanol",freely soluble
same,solubility in alkaline solutions,"alkaline solutions containing sodium hydroxide or sodium phosphate, pH of 9 to 10",most soluble
same,stability in aqueous solution,aqueous solution,not stable
same,pH of saturated solution,saturated solution,6.3
